{"source": "ChEMBL document CHEMBL5678796", "about": "“A highly potent and selective farnesyltransferase inhibitor ABT-100 in preclinical studies” (Anticancer Drugs, 2005)", "key": {"[1]": {"assay": "AUC in rat at 5 mg/kg, po", "format": "ADME, organism-based", "details": "in vivo"}, "[2]": {"assay": "Cmax in rat at 5 mg/kg, po", "format": "ADME, organism-based", "details": "in vivo"}, "[3]": {"system": "HCT-116", "assay": "Antitumor activity against human HCT-116 cells xenografted in nu/nu CD1 mouse assessed as reduction in tumor volume by measuring tumor to control ratio at 6.25 mg/kg, sc preinoculated with cells for 5 days followed by once daily compound administration for 21 days and measured on day 25", "format": "functional", "details": "time 25 day"}, "[4]": {"assay": "Inhibition of FTase in human DLD-1 cells expressing moderate level of P-gp1 using Ras as substrate assessed as inhibition of substrate post-translation processing in presence of 10% human serum by immunoblot analysis", "format": "cell-based"}, "[5]": {"assay": "AUC in dog at 2.5 mg/kg, iv", "format": "ADME, organism-based, Canis lupus familiaris", "details": "in vivo"}, "[6]": {"assay": "Oral bioavailability in rat at 25 mg/kg", "format": "ADME, organism-based", "details": "in vivo"}, "[7]": {"assay": "Volume of distribution in rat at 5 mg/kg, iv", "format": "ADME, organism-based", "details": "in vivo"}, "[8]": {"assay": "Inhibition of FTase in human HCT-15 cells expressing high level of P-gp1 using Ras as substrate assessed as inhibition of substrate post-translation processing in presence of 20% human serum by immunoblot analysis", "format": "cell-based"}, "[9]": {"system": "HCT-116", "assay": "Antitumor activity against human HCT-116 cells xenografted in nu/nu CD1 mouse assessed as tumor volume at 12.5 mg/kg, sc preinoculated with cells for 5 days followed by once daily compound administration for 21 days and measured on day 25 (reference value: 1569 +/- 165 mm^3)", "format": "functional", "details": "time 25 day"}, "[10]": {"assay": "Ratio of EC50 for inhibition of FTase in human HCT-116 cells expressing low level of P-gp1 using Ras as substrate assessed as inhibition of substrate post-translation processing in presence of 20% human serum to EC50 for inhibition of FTase in human HCT-116 cells expressing low level of P-gp1 using Ras as substrate assessed as inhibition of substrate post-translation processing in presence of 10% …", "details": "condition cancer"}, "[11]": {"assay": "Cmax in dog at 2.5 mg/kg, po", "format": "ADME, organism-based, Canis lupus familiaris", "details": "in vivo"}, "[12]": {"system": "Mus musculus", "assay": "Antiangiogenic activity in human recombinant bFGF-stimulated CF1 mouse corneal model assessed as inhibition of new blood growth area at 25 mg/kg, sc prestimulated with bFGF followed by compound administration and measured on day 5 by slit lamp biomicroscopic analysis relative to control", "format": "functional", "details": "CF1, 120 h, time 5 day"}, "[13]": {"system": "Mus musculus", "assay": "Antiangiogenic activity in human recombinant bFGF-stimulated CF1 mouse corneal model assessed as inhibition of new blood growth area at 100 mg/kg, sc prestimulated with bFGF followed by compound administration and measured on day 5 by slit lamp biomicroscopic analysis relative to control", "format": "functional", "details": "CF1, 120 h, time 5 day"}, "[14]": {"system": "HCT-116", "assay": "Antitumor activity against human HCT-116 cells xenografted in nu/nu CD1 mouse assessed as increase in life span at 100 mg/kg, sc preinoculated with cells for 5 days followed by once every 2 days compound administration for 11 times and measured on day 22 relative to vehicle in time to 1 cm3 tumor", "format": "functional", "details": "HCT-116, 528 h, time 22 day"}, "[15]": {"system": "HCT-116", "assay": "Antitumor activity against human HCT-116 cells xenografted in nu/nu CD1 mouse assessed as increase in life span at 50 mg/kg, sc preinoculated with cells for 14 days followed by once daily compound administration for 21 days and measured on day 40 relative to vehicle in time to 1 cm^3 tumor", "format": "functional", "details": "HCT-116, 960 h, time 40 day"}, "[16]": {"system": "HCT-116", "assay": "Antitumor activity against human HCT-116 cells xenografted in nu/nu CD1 mouse assessed as increase in life span at 6.25 mg/kg, sc preinoculated with cells for 5 days followed by once daily compound administration for 21 days and measured on day 25 relative to vehicle in time to 1 cm^3 tumor", "format": "functional", "details": "HCT-116, 600 h, time 25 day"}, "[17]": {"assay": "Ratio of EC50 for inhibition of FTase in human DLD-1 cells expressing moderate level of P-gp1 using Ras as substrate assessed as inhibition of substrate post-translation processing in presence of 20% human serum to EC50 for inhibition of FTase in human DLD-1 cells expressing moderate level of P-gp1 using Ras as substrate assessed as inhibition of substrate post-translation processing in presence …", "details": "condition cancer"}, "[18]": {"system": "NIH3T3", "assay": "Inhibition of VEGF secretion in mouse NIH3T3 cells incubated for 72 hrs ELISA", "format": "functional, cell-based", "details": "dose 0.1-3 µmol/L"}, "[19]": {"system": "HCT-116", "assay": "Antitumor activity against human HCT-116 cells xenografted in nu/nu CD1 mouse assessed as tumor volume at 50 mg/kg, sc preinoculated with cells for 14 days followed by once daily compound administration for 21 days and measured on day 40 (reference value: 2973 +/- 593 mm^3)", "format": "functional", "details": "time 40 day"}, "[20]": {"assay": "Half-life in dog at 2.5 mg/kg, po", "format": "ADME, organism-based, Canis lupus familiaris", "details": "in vivo"}, "[21]": {"assay": "Half-life in rat at 5 mg/kg, iv", "format": "ADME, organism-based", "details": "in vivo"}, "[22]": {"assay": "Inhibition of FTase in human HCT-116 cells expressing low level of P-gp1 using Ras as substrate assessed as inhibition of substrate post-translation processing in presence of 20% human serum by immunoblot analysis", "format": "cell-based"}, "[23]": {"system": "HCT-116", "assay": "Antitumor activity against human HCT-116 cells xenografted in nu/nu CD1 mouse assessed as reduction in tumor volume by measuring tumor to control ratio at 12.5 mg/kg, sc preinoculated with cells for 5 days followed by once daily compound administration for 21 days and measured on day 25", "format": "functional", "details": "time 25 day"}, "[24]": {"system": "HCT-116", "assay": "Antitumor activity against human HCT-116 cells xenografted in nu/nu CD1 mouse assessed as reduction in tumor volume by measuring test to control ratio at 50 mg/kg, sc preinoculated with cells for 14 days followed by once daily compound administration for 21 days and measured on day 40", "format": "functional", "details": "time 40 day"}, "[25]": {"system": "Mus musculus", "assay": "Antiangiogenic activity in human recombinant VEGF-stimulated CF1 mouse corneal model assessed as inhibition of new blood growth area at 25 mg/kg, sc prestimulated with VEGF followed by compound administration and measured on day 7 by slit lamp biomicroscopic analysis relative to control", "format": "functional", "details": "CF1, 168 h, time 7 day"}, "[26]": {"assay": "Inhibition of recombinant bovine GGTase I incubated for 30 min sin presence of [3H]FPP by SPA based Topcount scintillation plate reader analysis", "design": "species or system Bos taurus"}, "[27]": {"assay": "Selectivity index, ratio of IC50 for inhibition of bovine GGTase 1 to IC50 for inhibition of recombinant human FTase"}, "[28]": {"system": "HCT-116", "assay": "Antitumor activity against human HCT-116 cells xenografted in nu/nu CD1 mouse assessed as reduction in tumor volume by measuring tumor to control ratio at 25 mg/kg, sc preinoculated with cells for 5 days followed by once daily compound administration for 21 days and measured on day 25", "format": "functional", "details": "time 25 day"}}}
{"smiles": "Cn1cncc1[C@](O)(COc1ccc(C#N)cc1-c1ccc(OC(F)(F)F)cc1)c1ccc(C#N)cc1", "note": "[ABT-100]", "values": [{"measurement": "AUC", "setting": "[1]", "value": 450, "unit": "ng·h/mL"}, {"measurement": "Cmax", "setting": "[2]", "value": 80, "unit": "ng/mL"}, {"measurement": "T/C", "setting": "[3]", "value": 56, "unit": "%"}, {"measurement": "EC50", "setting": "[4]", "value": 0.4, "unit": "nM"}, {"measurement": "AUC", "setting": "[5]", "value": 7700, "unit": "ng·h/mL"}, {"measurement": "bioavailability", "setting": "[6]", "value": 30.7, "unit": "%"}, {"measurement": "Vd", "setting": "[7]", "value": 5.6, "unit": "L/kg"}, {"measurement": "EC50", "setting": "[8]", "value": 1.1, "unit": "nM"}, {"measurement": "Activity", "setting": "[9]", "value": 721, "unit": "mm3"}, {"measurement": "Ratio EC50", "setting": "[10]", "value": 1.5}, {"measurement": "Cmax", "setting": "[11]", "value": 280, "unit": "ng/mL"}, {"measurement": "inhibition in vivo at 25 mg/kg", "setting": "[12]", "value": 32, "unit": "%"}, {"measurement": "inhibition in vivo at 100 mg/kg", "setting": "[13]", "value": 49, "unit": "%"}, {"measurement": "ILS at 100 mg/kg", "setting": "[14]", "value": 32, "unit": "%"}, {"measurement": "ILS at 50 mg/kg", "setting": "[15]", "value": 52, "unit": "%"}, {"measurement": "ILS at 6.25 mg/kg", "setting": "[16]", "value": 50, "unit": "%"}, {"measurement": "Ratio EC50", "setting": "[17]", "value": 1.5}, {"measurement": "inhibition", "setting": "[18]", "value": "Dose-Dependent Effect"}, {"measurement": "Activity", "setting": "[19]", "value": 1530, "unit": "mm3"}, {"measurement": "half-life", "setting": "[20]", "value": 5.9, "unit": "h"}, {"measurement": "half-life", "setting": "[21]", "value": 2.3, "unit": "h"}, {"measurement": "EC50", "setting": "[22]", "value": 1.7, "unit": "nM"}, {"measurement": "T/C", "setting": "[23]", "value": 39, "unit": "%"}, {"measurement": "T/C", "setting": "[24]", "value": 45, "unit": "%"}, {"measurement": "inhibition in vivo at 25 mg/kg", "setting": "[25]", "value": 8, "unit": "%"}, {"measurement": "IC50", "setting": "[26]", "value": "> 10000", "unit": "nM"}, {"measurement": "Ratio IC50", "setting": "[27]", "value": "> 100000"}, {"measurement": "T/C", "setting": "[28]", "value": 32, "unit": "%"}]}
